Laboratory results published in patent US7820636B2, “Sugar intake promoters” (Otsuka Pharmaceutical Co., Ltd., priority 2001, dated 2010).

Tested on: human epidermal keratinocytes
Assay: 3H-2-deoxyglucose uptake in epidermal keratinocytes
Assay type: cell-based
Conditions: for promotion effect relative to that of adenosine at the same concentration: p<0.05; for action of promoting epidermal keratinocytic glucose uptake (qualitative): FIG. 1
Protocol: The influence of purine base on glucose uptake in epidermal keratinocytes was examined using adenosine 5′-phosphate-2Na (AMP-2Na), adenosine and inosine as test compounds. As a control, the experiment was carried out in a similar manner without using the test compound.
Human epidermal keratinocyates (normal human neonatal foreskin epidermal keratinocytes, “Epidercell NHEK(F)”, product of Kurabo industries, Ltd.) were initially cultured in a 10-cm petri dish and stored in a frozen state until use. At the time of use, the cryopreserved cells were cultured on a 24-well plate for about 6 to 7 days and subjected to this experiment when the cells were 70-80% confluent.
A glucose-free medium was prepared by adding to a serum-free medium for the growth of epidermal keratinocytes (“HuMedia-KG2”, special ordered medium, product of Kurabo Industries, Ltd.) 1 ml of calcium solution and 0.1 ml of phenol red packaged with the medium product. Bovine serum albumin (BSA) treated with activated carbon to remove impurities was added to the medium to become a concentration of 1% and the medium was adjusted to pH 7.4 with NaOH.
1 ml of 10 mM 2-deoxyglucose, 60 μl of 250 μCi/250 μl ^3H-2-deoxyglucose and 940 μl of 1% BSA/glucose-free medium (pH 7.4) were mixed.
Epidermal keratinocytes cultured in a 24-well plate were washed with PBS(−) (Ca^2+ and Mg^2+ free phosphate buffered saline) three times. After addition of serum-free medium for the growth of epidermal keratinocytes (“HuMedia-KG2”, special ordered medium, product of Kurabo Industries, Ltd.), the cells were cultured for 2 hours and then washed with PBS(−) three times. After addition of 1 ml of 1% BSA/glucose-free medium (pH 7.4) in which the test compound was dissolved, the cells were cultured for 30 minutes and then 20 μl of ^3H-2-deoxyglucose solution was added per ml of the medium. The cells were allowed to stand for 10 minutes and then washed with ice-cooled glucose-containing PBS(−) three times. After addition of 0.5 ml of 0.1N NaOH containing 0.1% SDS, the cells ware allowed to stand in a static condition for at least 2 hours to produce a cell lysate solution. 0.5 ml of 0.11N HCl containing 0.1% SDS was added to acidify the cell lysis solution. 80 μl of the cell lysate solution was used for protein assay (“DC Protein Assay”, product of Bio-Rad), and 750 μl of the same was placed into a glass bottle. 20 ml of a liquid scintillation cocktail (ACS-II, product of Amersham) was added. After gently stirring the mixture, radioactivity was assayed using the liquid scintillation counter. The radioactivity per unit amount of protein was determined from the measured radioactivity and the amount of ^3H-2-deoxyglucose uptake (H-DPM (μg)/μg protein) was calculated by subtracting the radioactivity due to non-specific 3H-2-deoxyglucose uptake.
The above experiment was carried out twice and the mean averages were calculated. For comparison with the control, each value was converted to a ratio to the control value set as 1. […] In FIG. 1, the abscissa designates the concentration (log M) of each purine base (AMP-2Na, adenosine, inosine), and the ordinate designates the ratio of cellular 2-deoxyglucose uptake amount (H-DPM (μg)/μg protein) relative to the control set as 1.

SMILES	promotion of glucose uptake relative to control (ratio, control = 1) (10^-5 M, first experiment)	promotion of glucose uptake relative to control (ratio, control = 1) (10^-5 M, second experiment)	promotion of glucose uptake relative to control (ratio, control = 1) (10^-6 M, first experiment)	promotion effect relative to that of adenosine at the same concentration (10^-6 M, first experiment)	promotion of glucose uptake relative to control (ratio, control = 1) (10^-6 M, second experiment)	promotion effect relative to that of adenosine at the same concentration (10^-6 M, second experiment)	glucose uptake promotion compared with inosine (qualitative) (low concentration (10^-7 M))	action of promoting epidermal keratinocytic glucose uptake (qualitative)
Nc1ncnc2c1ncn2[C@@H]1O[C@H](COP(=O)([O-])[O-])[C@@H](O)[C@H]1O.[Na+].[Na+] [AMP-2Na, adenosine 5′-phosphate-2Na]	about 1.61 times	about 1.43 times	about 1.48 times	about 1.16 times	about 1.48 times	about 1.32 times	promotes glucose uptake more effectively than inosine	–
Nc1ncnc2c1ncn2[C@@H]1O[C@H](CO)[C@@H](O)[C@H]1O [adenosine]	–	–	–	–	–	–	–	have the action of promoting epidermal keratinocytic glucose uptake
OC[C@H]1O[C@@H](n2cnc3c(O)ncnc32)[C@H](O)[C@@H]1O [inosine]	–	–	–	–	–	–	–	have the action of promoting epidermal keratinocytic glucose uptake
